This is an account of results in patent US12404284B2, “Spirocyclic inhibitors of hepatitis B virus” (Ospedale San Raffaele S.r.l., priority 2020, dated 2025).

The subject of assay [1] is HBV. The assay can be described thus: Anti-HBV activity in vitro: extracellular HBV DNA by direct qPCR in HepAD38 cells. In kind it is cell-based. To be noted: Hepatitis B virus, doxycycline-free medium, 96 hours, read-out: HBV inh EC50. The source says:
HepAD38 cell line (Ladner et al., Antimicrob Agents Chemother, 1997, 41, 1715-20) was used for HBV inhibition assays. HepAD38 is a subclone, derived from hepatoblastoma cell line HepG2 (ATCC® Number: HB-8065™), that expresses HBV genome under the transcriptional control of a tetracycline-responsive promoter in a TET-OFF system: addition of doxycycline, an antibiotic belonging to the class of tetracycline, suppresses HBV replication, while its removal switches on the process allowing HBV viral particles release in the cell supernatant. […]
Anti-HBV activity in vitro HBV inhibition activity in vitro was performed in 96 multiwell plates. […] From the dose-response curves, half maximal effective concentration (EC50) could be calculated (see also below). […]
Plates were then incubated 96 hours at 37° C. and then subjected to cell viability assays and extracellular HBV quantification, in order to evaluate both the cytotoxic potential and the anti-viral activity of compounds. Cytotoxicity was assessed by a commercial fluorescence assay that measures the metabolic activity of cells, directly related to cell viability (Cell Titer Blue, Promega). Anti-HBV activity was evaluated by quantification of extracellular HBV DNA with direct qPCR. […]

The test system of assay [2] is HBV. To be noted: Phase 1b clinical studies; cited from earlier work.

For `Cn1cc2c(c1C(=O)Nc1ccc(F)c(Cl)c1)OC[C@@]1(CCN(C(=O)C(=O)NCC(F)(F)F)C1)NS2(=O)=O` [Example E25, (S)—N-(3-chloro-4-fluorophenyl)-7′-methyl-1-(2-oxo-2-((2,2,2-trifluoroethyl)amino)acetyl)-2′H,4′H,7′H-spiro[pyrrolidine-3,3′-pyrrolo[3,4-b][1,4,5]oxathiazepine]-6′-carboxamide 1′,1′-dioxide], the EC50 with HBV [1] was less than 500 nM. Still for that read-out and setting: the same measure for `C[C@@H](NC(=O)C(=O)N1CCC2(CC1)COc1c(c(Cl)n(C)c1C(=O)Nc1ccc(F)c(C(F)F)c1)S(=O)(=O)N2)C(F)(F)F` [Example E35, (R)-8′-chloro-N-(3-(difluoromethyl)-4-fluorophenyl)-7′-methyl-1-(2-oxo-2-((1,1,1-trifluoropropan-2-yl)amino)acetyl)-2′H,4′H,7′H-spiro[piperidine-4,3′-pyrrolo[3,4-b][1,4,5]oxathiazepine]-6′-carboxamide 1′,1′-dioxide]: less than 500 nM. In the case of `O=C(Nc1cc(F)c(F)c(F)c1)c1ccc(F)c(S(=O)(=O)N2CCC(O)CC2)c1` [NVR3-778], in the assay with HBV [2], the “reduction in HBV DNA” value is recorded as “significant reduction” and the “reduction in serum HBV RNA” value was “significant reduction”.
